We go through 4 molecules from US7446111B2, “Amorphous rapamycin 42-ester with 3-hydroxy-2-(hydroxymethyl)-2-methylpropionic acid and its pharmaceutical compositions” (Wyeth, priority 2003, dated 2008).

Series [1] can be described thus: physchem. It is filed as physicochemical. The method, then:
A 0.005 M citric acid solution containing 0.2% sodium lauryl sulfate and 0.001% calcium EDTA was adjusted to a pH of about 4.73.
The solutions were then mixed, maintained at room temperature, and shaken on a rotary shaker for about 24 to about 48 hours.
Samples (2 mL) of both the amorphous and crystalline solutions were withdrawn at 24 h and 48 h, filtered through a 0.2 μm filter and analyzed at room temperature using high performance liquid chromatography (HPLC) (Table 4). Solubilities of the samples were then calculated using the data provided in the HPLC chromatograph and techniques used by those of skilled in the art and is provided in Table 4.

The nature of series [2]: physchem. It is filed as physicochemical. Particulars: for Solubility: pH 4.6. The method, then:
The solutions were mixed and maintained at room temperature and a pH of about 4.6. The vials were then shaken on a rotary shaker for 24 hours.
Samples (2 mL) of both of the amorphous and crystalline solutions were withdrawn at selected time intervals (0, 0.5, 3, 5, and 24 h), filtered through a 0.2 μm filter and analyzed at room temperature using high performance liquid chromatography (HPLC) (Table 1). The solubility of the samples was calculated using the data provided in the HPLC chromatograph and techniques used by those skilled in the art and is provided in Table 3.

[3] abbreviates: 25 °C, pH 4.73, aqueous with cosolvent or surfactant or cyclodextrin, thermodynamic from solid.
Setting [4] is: 25 °C, pH 4.6, aqueous buffer, thermodynamic from solid.
Setting [5] is: 5° C., 1 week, sample prepared by evaporation.
Where [6] appears, read: 5° C., 2 weeks, sample prepared by evaporation.
[7] abbreviates: 40° C./75% RH, 1 week, sample prepared by evaporation.
Where [8] appears, read: 40° C./75% RH, 2 weeks, sample prepared by evaporation.
Where [9] appears, read: Initial, sample prepared by evaporation.
The mark [10] stands for this setting: 5° C., 1 Week, sample prepared by precipitation.
Setting [11] is: 40° C./75% RH, 1 Week, sample prepared by precipitation.
[12] abbreviates: Initial, sample prepared by precipitation.
Where [13] appears, read: RT, 1 Week, sample prepared by precipitation.

Values after ≈ are worked out from the molar mass of the structure shown. Like-named read-outs stand apart in the source and are kept apart here.

The term solubility denotes the dissolved amount per volume that the medium holds. Low readings indicate a poorly soluble substance, high ones a readily soluble substance. By Solubility is commonly meant the dissolved amount per volume that the medium holds. A higher Solubility goes with a readily soluble substance.

Turning to `CO[C@H]1C[C@@H]2CC[C@@H](C)[C@@](O)(O2)C(=O)C(=O)N2CCCC[C@H]2C(=O)O[C@H]([C@H](C)C[C@@H]2CC[C@@H](OC(=O)C(C)(CO)CO)[C@H](OC)C2)CC(=O)[C@H](C)/C=C(\C)[C@@H](O)[C@@H](OC)C(=O)[C@H](C)C[C@H](C)/C=C/C=C/C=C/1C` [Crystalline, rapamycin 42-ester with 3-hydroxy-2-(hydroxymethyl)-2-methylpropionic acid], in “physchem [1]” (setting [3]), the solubility at 24 h was determined as 640 µg/mL (≈ 621 µM) and the concentration in solution (solubility at 48 h) came to 640 µg/mL (≈ 621 µM). The molecule also showed a Solubility in “physchem [2]” (0 h) of 0 µg/mL. In the series “physchem [2]” (setting [4]), this molecule returned a solubility at 0.5 h of 0.26 µg/mL (≈ 0.252 µM), a solubility at 3 h of 0.29 µg/mL (≈ 0.281 µM), a solubility at 5 h of 0.23 µg/mL (≈ 0.223 µM) and a solubility at 24 h of 0.61 µg/mL (≈ 0.592 µM).
As to `CO[C@H]1C[C@@H]2CC[C@@H](C)[C@@](O)(O2)C(=O)C(=O)N2CCCC[C@H]2C(=O)O[C@H]([C@H](C)C[C@@H]2CC[C@@H](OC(=O)C(C)(CO)CO)[C@H](OC)C2)CC(=O)[C@H](C)/C=C(\C)[C@@H](O)[C@@H](OC)C(=O)[C@H](C)C[C@H](C)/C=C/C=C/C=C/1C` [batch A1, rapamycin 42-ester with 3-hydroxy-2-(hydroxymethyl)-2-methylpropionic acid], the “SLI*” value is reported as 3.91% under setting [5], 3.74% under setting [6], 3.93% under setting [7] and 3.72% under setting [8]. The Strength under setting [5] is on record as 95.20%; the Strength under setting [6] is listed as 92.56%; the Strength under setting [7] stood at 94.16%; the Strength under setting [8] is recorded as 90.55%; the Strength entry under setting [9] is on record as “Strength = 98.33%,”. For the same molecule, the “Total Imp” value was 5.07% under setting [5]; 4.42% under setting [6]; 5.15% under setting [7]; 4.60% under setting [8]; 0.46% under setting [9]. Further, the SLI under setting [9] came out at 0.19%.
With `COC1CC2CCC(C)C(O)(O2)C(=O)C(=O)N2CCCCC2C(=O)OC(C(C)CC2CCC(OC(=O)C(C)(CO)CO)C(OC)C2)CC(=O)C(C)/C=C(\C)C(O)C(OC)C(=O)C(C)CC(C)/C=C/C=C/C=C/1C` (centres unmarked) [amorphous rapamycin 42-ester with 3-hydroxy-2-(hydroxymethyl] [rapamycin 42-ester with 3-hydroxy-2-(hydroxymethyl)-2-methylpropionic acid], the “Temperature up to which the amorphous form is stable” value is “up to 5 °C”. Besides, the “Solubility relative to crystalline form” value in “physchem [1]” is listed as “about 3.5 times”. In “physchem [1]” (pH 4.73), the Solubility result was “about 2.17 mg/mL”. In addition, in the series “physchem [2]”, the “Solubility relative to crystalline form” value worked out at 3 times, the “Solubility relative to crystalline form (general statement)” value is recorded as “at least 3 times” and the Solubility result is listed as “about 1.88 μg/mL”.
Turning to `COC1CC2CCC(C)C(O)(O2)C(=O)C(=O)N2CCCCC2C(=O)OC(C(C)CC2CCC(OC(=O)C(C)(CO)CO)C(OC)C2)CC(=O)C(C)/C=C(\C)C(O)C(OC)C(=O)C(C)CC(C)/C=C/C=C/C=C/1C` (centres unmarked) [Amorphous (batch C4), rapamycin 42-ester with 3-hydroxy-2-(hydroxymethyl)-2-methylpropionic acid], under setting [10], the SLI is 0.15%, the Strength was determined as 98.71% and the “Total Imp” value is 0.44%. Further, under setting [11], the SECO was determined as 0.04%, the SLI is recorded as 0.32%, the Strength is reported as 91.36% and the “Total Imp” value turned out to be 0.70%. Under setting [12], the SLI came to 0.20%, the Strength came out at 97.93% and the “Total Imp” value was 0.41%. Also, under setting [13], the SLI was determined as 0.12%, the Strength is recorded as 97.49% and the “Total Imp” value is listed as 0.37%.
